Measured values: ChEMBL document CHEMBL1122903, “Synthesis, in vitro [3H]prazosin displacement, and in vivo activity of 3-aryl-4,5,6,7-tetrahydropyrazolo[4,3-c]pyridines, a new class of antihypertensive agents” (J Med Chem, 1985)

How the values were obtained:
Rattus norvegicus [1] = experiment: Antihypertensive activity on spontaneously hypertensive rats, when administered orally at a dose 30 mg/kg; type: functional; details: route oral
[2] = target: T1, Adrenergic receptor alpha-1 (Rattus norvegicus, UniProt P15823+P23944+P43140); experiment: Ability to displace [3H]prazosin from postsynaptic alpha-1 adrenergic receptor of rat in vitro.; type: protein assay
T1 sequence (P15823 whole entry): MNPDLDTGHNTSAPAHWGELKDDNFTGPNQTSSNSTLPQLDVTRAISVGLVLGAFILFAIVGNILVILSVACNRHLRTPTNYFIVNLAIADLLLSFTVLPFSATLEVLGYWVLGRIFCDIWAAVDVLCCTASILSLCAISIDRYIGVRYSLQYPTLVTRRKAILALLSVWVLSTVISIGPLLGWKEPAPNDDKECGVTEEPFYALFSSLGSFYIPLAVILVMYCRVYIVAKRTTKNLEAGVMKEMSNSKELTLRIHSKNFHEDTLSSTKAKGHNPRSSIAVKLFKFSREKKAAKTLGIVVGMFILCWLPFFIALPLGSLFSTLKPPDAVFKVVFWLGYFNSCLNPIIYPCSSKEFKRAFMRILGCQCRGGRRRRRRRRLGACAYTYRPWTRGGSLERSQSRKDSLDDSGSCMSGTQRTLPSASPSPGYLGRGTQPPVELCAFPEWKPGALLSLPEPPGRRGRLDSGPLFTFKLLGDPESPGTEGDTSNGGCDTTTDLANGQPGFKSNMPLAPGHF
T1 sequence (P23944 whole entry): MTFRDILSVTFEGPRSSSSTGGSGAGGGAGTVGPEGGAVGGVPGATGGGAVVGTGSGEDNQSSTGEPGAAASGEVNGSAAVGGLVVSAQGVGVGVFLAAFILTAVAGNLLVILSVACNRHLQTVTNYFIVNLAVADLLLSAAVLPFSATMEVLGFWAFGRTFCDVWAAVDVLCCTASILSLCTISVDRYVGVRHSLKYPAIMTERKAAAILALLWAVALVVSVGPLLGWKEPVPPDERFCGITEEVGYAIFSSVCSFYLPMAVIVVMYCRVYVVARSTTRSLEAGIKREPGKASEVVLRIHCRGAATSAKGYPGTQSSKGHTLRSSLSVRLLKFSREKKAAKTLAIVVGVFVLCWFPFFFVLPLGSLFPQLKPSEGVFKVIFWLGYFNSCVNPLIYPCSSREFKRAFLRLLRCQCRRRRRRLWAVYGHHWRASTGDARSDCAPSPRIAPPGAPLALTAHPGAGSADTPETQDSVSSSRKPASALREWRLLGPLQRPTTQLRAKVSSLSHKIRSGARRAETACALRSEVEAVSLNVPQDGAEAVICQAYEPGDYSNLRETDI
T1 sequence (P43140 whole entry): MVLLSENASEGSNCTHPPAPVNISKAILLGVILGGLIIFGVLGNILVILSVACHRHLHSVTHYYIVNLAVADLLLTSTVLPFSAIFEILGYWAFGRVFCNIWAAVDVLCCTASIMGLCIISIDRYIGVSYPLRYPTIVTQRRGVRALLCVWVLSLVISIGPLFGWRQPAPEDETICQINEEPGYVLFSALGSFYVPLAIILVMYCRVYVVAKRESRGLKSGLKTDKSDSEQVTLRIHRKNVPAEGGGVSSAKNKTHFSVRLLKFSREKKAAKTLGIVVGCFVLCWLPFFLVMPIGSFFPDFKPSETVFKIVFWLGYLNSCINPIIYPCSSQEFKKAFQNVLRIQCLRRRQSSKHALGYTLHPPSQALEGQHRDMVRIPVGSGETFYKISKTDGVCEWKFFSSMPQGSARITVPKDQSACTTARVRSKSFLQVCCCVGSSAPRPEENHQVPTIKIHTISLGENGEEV

Canis familiaris [3] = experiment: Systolic blood pressure after 4 hours of oral administration in renal hypertensive dogs at dose 2 mg/kg; type: functional, Canis lupus familiaris
Canis familiaris [4] = experiment: Systolic blood pressure after 0 hours of oral administration in renal hypertensive dogs at dose 1 mg/kg; type: functional, Canis lupus familiaris
Canis familiaris [5] = experiment: Peak effect after 8 hours on systolic blood pressure after 1 day of oral administration in renal hypertensive dogs at dose 0.5 mg/kg; type: functional, Canis lupus familiaris, Artery
Canis familiaris [6] = experiment: Systolic blood pressure after 8 hours of oral administration in renal hypertensive dogs at dose 1 mg/kg; type: functional, Canis lupus familiaris
Canis familiaris [7] = experiment: Heart rate after 0 hours of oral administration in renal hypertensive dogs at dose 0.25 mg/kg; type: functional, Canis lupus familiaris
Canis familiaris [8] = experiment: Heart rate after 6 hours of oral administration in renal hypertensive dogs at dose 0.25 mg/kg; type: functional, Canis lupus familiaris
Canis familiaris [9] = experiment: Peak effect after 8 hours on heart rate after 7 days of oral administration in renal hypertensive dogs at dose 0.5 mg/kg; type: functional, Canis lupus familiaris
Canis familiaris [10] = experiment: Heart rate after 4 hours of oral administration in renal hypertensive dogs at dose 2 mg/kg; type: functional, Canis lupus familiaris
Canis familiaris [11] = experiment: Peak effect after 8 hours on heart rate after 2 day of oral administration in renal hypertensive dogs at dose 0.5 mg/kg; type: functional, Canis lupus familiaris
Canis familiaris [12] = experiment: Systolic blood pressure after 2 hr of oral administration in renal hypertensive dogs at dose 2 mg/kg; type: functional, Canis lupus familiaris
Canis familiaris [13] = experiment: Peak effect after 8 hours on systolic blood pressure after 2 days of oral administration in renal hypertensive dogs at dose 0.5 mg/kg; type: functional, Canis lupus familiaris, Artery
Canis familiaris [14] = experiment: Systolic blood pressure after 2 hours of oral administration in renal hypertensive dogs at dose 1 mg/kg; type: functional, Canis lupus familiaris
Canis familiaris [15] = experiment: Systolic blood pressure after 8 hours of oral administration in renal hypertensive dogs at dose 0.25 mg/kg; type: functional, Canis lupus familiaris
Canis familiaris [16] = experiment: Systolic blood pressure after 6 hours of oral administration in renal hypertensive dogs at dose 0.25 mg/kg; type: functional, Canis lupus familiaris
Canis familiaris [17] = experiment: Systolic blood pressure after 6 hours of oral administration in renal hypertensive dogs at dose 1 mg/kg; type: functional, Canis lupus familiaris
Canis familiaris [18] = experiment: Peak effect after 8 hours on systolic blood pressure after 7 days of oral administration in renal hypertensive dogs at dose 0.5 mg/kg; type: functional, Canis lupus familiaris, Artery
Canis familiaris [19] = experiment: Heart rate after 2 hours of oral administration in renal hypertensive dogs at dose 0.25 mg/kg; type: functional, Canis lupus familiaris
Canis familiaris [20] = experiment: Systolic blood pressure after 6 hours of oral administration in renal hypertensive dogs at dose 2 mg/kg; type: functional, Canis lupus familiaris
Canis familiaris [21] = experiment: Heart rate after 2 hours of oral administration in renal hypertensive dogs at dose 2 mg/kg; type: functional, Canis lupus familiaris
Canis familiaris [22] = experiment: Peak effect after 8 hours systolic blood pressure after 3 days of oral administration in renal hypertensive dogs at dose 0.5 mg/kg; type: functional, Canis lupus familiaris, Artery
Canis familiaris [23] = experiment: Peak effect after 8 hours on heart rate after 1 days of oral administration in renal hypertensive dogs at dose 0.5 mg/kg; type: functional, Canis lupus familiaris
Canis familiaris [24] = experiment: Heart rate after 4 hours of oral administration in renal hypertensive dogs at dose 0.25 mg/kg; type: functional, Canis lupus familiaris
Canis familiaris [25] = experiment: Systolic blood pressure after 4 hours of oral administration in renal hypertensive dogs at dose 1 mg/kg (mean +/- SE for 3 animals /dose); type: functional, Canis lupus familiaris
Canis familiaris [26] = experiment: Heart rate after 8 hours of oral administration in renal hypertensive dogs at dose 1 mg/kg; type: functional, Canis lupus familiaris
Canis familiaris [27] = experiment: Systolic blood pressure after 0 hours of oral administration in renal hypertensive dogs at dose 2 mg/kg; type: functional, Canis lupus familiaris
Canis familiaris [28] = experiment: Peak effect after 8 hours on heart rate after 3 days of oral administration in renal hypertensive dogs at dose 0.5 mg/kg; type: functional, Canis lupus familiaris
Canis familiaris [29] = experiment: Heart rate after 6 hours of oral administration in renal hypertensive dogs at dose 1 mg/kg; type: functional, Canis lupus familiaris
Canis familiaris [30] = experiment: Heart rate after 6 hours of oral administration in renal hypertensive dogs at dose 2 mg/kg; type: functional, Canis lupus familiaris
Canis familiaris [31] = experiment: Systolic blood pressure after 0 hours of oral administration in renal hypertensive dogs at dose 0.25 mg/kg; type: functional, Canis lupus familiaris
Canis familiaris [32] = experiment: Heart rate after 8 hours of oral administration in renal hypertensive dogs at dose 2 mg/kg; type: functional, Canis lupus familiaris
Rattus norvegicus [33] = experiment: Antihypertensive activity on spontaneously hypertensive rats when administered orally at a dose 50 mg/kg.; type: functional; details: route oral
Canis familiaris [34] = experiment: Systolic blood pressure after 4 hours of oral administration in renal hypertensive dogs at dose 0.25 mg/kg; type: functional, Canis lupus familiaris
Canis familiaris [35] = experiment: Heart rate after 4 hours of oral administration in renal hypertensive dogs at dose 1 mg/kg; type: functional, Canis lupus familiaris
Canis familiaris [36] = experiment: Heart rate after 8 hours of oral administration in renal hypertensive dogs at dose 0.25 mg/kg; type: functional, Canis lupus familiaris
Canis familiaris [37] = experiment: Heart rate after 0 hours of oral administration in renal hypertensive dogs at dose 1 mg/kg; type: functional, Canis lupus familiaris
Canis familiaris [38] = experiment: Heart rate after 0 hours of oral administration in renal hypertensive dogs at dose 2 mg/kg; type: functional, Canis lupus familiaris
Canis familiaris [39] = experiment: Systolic blood pressure after 8 hours of oral administration in renal hypertensive dogs at dose 2 mg/kg; type: functional, Canis lupus familiaris
Canis familiaris [40] = experiment: Systolic blood pressure after 2 hours of oral administration in renal hypertensive dogs at dose 0.25 mg/kg; type: functional, Canis lupus familiaris
Canis familiaris [41] = experiment: Heart rate after 2 hours of oral administration in renal hypertensive dogs at dose 1 mg/kg; type: functional, Canis lupus familiaris

`CCn1nc(-c2ccc(F)cc2)c2c1CCN(C)C2.CS(=O)(=O)O` was tested. Which Delta p (Rattus norvegicus [1]) did it give?
Its Delta p is -37%.

And the Ki [2]?
Its Ki is 362 nM.

How did the SBP (Canis familiaris [3]) turn out when `Cl.Fc1ccc(-c2nn(Cc3ccccc3)c3c2CNCC3)cc1` was run?
The SBP was 165 mmHg.

What about the SBP (Canis familiaris [4]) of the same compound?
The SBP was 200 mmHg.

And the SBP (Canis familiaris [5])?
The SBP was 160 mmHg.

And the SBP (Canis familiaris [6])?
Its SBP is 165 mmHg.

What about the Heart rate (Canis familiaris [7]) of the same compound?
Its Heart rate is 110 beats min-1.

What about the Heart rate (Canis familiaris [8]) of the same compound?
The Heart rate was 105 beats min-1.

What about the Heart rate (Canis familiaris [9]) of the same compound?
The Heart rate was 95 beats min-1.

What about the Heart rate (Canis familiaris [10]) of the same compound?
The Heart rate was 104 beats min-1.

And the Heart rate (Canis familiaris [11])?
The Heart rate was 95 beats min-1.

What about the SBP (Canis familiaris [12]) of the same compound?
Its SBP is 183 mmHg.

And the SBP (Canis familiaris [13])?
Its SBP is 155 mmHg.

What about the SBP (Canis familiaris [14]) of the same compound?
The SBP was 198 mmHg.

And the SBP (Canis familiaris [15])?
The SBP was 190 mmHg.

And the SBP (Canis familiaris [16])?
Its SBP is 188 mmHg.

And the SBP (Canis familiaris [17])?
The SBP was 165 mmHg.

What about the SBP (Canis familiaris [18]) of the same compound?
The SBP was 155 mmHg.

And the Heart rate (Canis familiaris [19])?
Its Heart rate is 112 beats min-1.

And the Ki [2]?
The Ki was 14.7 nM.

What about the SBP (Canis familiaris [20]) of the same compound?
The SBP was 155 mmHg.

What about the Heart rate (Canis familiaris [21]) of the same compound?
The Heart rate was 107 beats min-1.

And the SBP (Canis familiaris [22])?
Its SBP is 160 mmHg.

And the Heart rate (Canis familiaris [23])?
Its Heart rate is 100 beats min-1.

What about the Heart rate (Canis familiaris [24]) of the same compound?
The Heart rate was 108 beats min-1.

What about the SBP (Canis familiaris [25]) of the same compound?
The SBP was 172 mmHg.

What about the Heart rate (Canis familiaris [26]) of the same compound?
The Heart rate was 93 beats min-1.

What about the SBP (Canis familiaris [27]) of the same compound?
The SBP was 203 mmHg.

And the Heart rate (Canis familiaris [28])?
The Heart rate was 105 beats min-1.

And the Heart rate (Canis familiaris [29])?
The Heart rate was 96 beats min-1.

What about the Heart rate (Canis familiaris [30]) of the same compound?
The Heart rate was 97 beats min-1.

What about the SBP (Canis familiaris [31]) of the same compound?
The SBP was 200 mmHg.

And the Heart rate (Canis familiaris [32])?
The Heart rate was 90 beats min-1.

And the Delta p (Rattus norvegicus [33])?
Its Delta p is -31%.

And the SBP (Canis familiaris [34])?
The SBP was 200 mmHg.

What about the Heart rate (Canis familiaris [35]) of the same compound?
The Heart rate was 105 beats min-1.

What about the Heart rate (Canis familiaris [36]) of the same compound?
The Heart rate was 109 beats min-1.

And the Heart rate (Canis familiaris [37])?
Its Heart rate is 107 beats min-1.

And the Heart rate (Canis familiaris [38])?
Its Heart rate is 110 beats min-1.

And the SBP (Canis familiaris [39])?
Its SBP is 156 mmHg.

And the SBP (Canis familiaris [40])?
The SBP was 202 mmHg.

And the Heart rate (Canis familiaris [41])?
Its Heart rate is 109 beats min-1.
